Measured values taken from patent publication US7592305B2, “Use of ghrelin for treating malnutrition in gastrectomized individuals” (Gastrotech Pharma A/S, priority 2002, dated 2009).
Ends that are not written are not given here. * marks the point of attachment. Octanoyl = CCCCCCCC(=O)*

Tested on: gastrectomised rats
Experiment: Treatment of totally gastrectomised (vagotomised) rats with ghrelin analogue MK-0677 by gavage
Format: in vivo, rat
Procedure: Total gastrectomy was performed and followed by end-to-end anastomosis between the esophagus and the duodenum as described in Lehto-Axtelius D., et al. Osteopenia after gastrectomy, fundectomy or antrectomy: an experimental study in the rat., Regul. Pept. 78 (1998), 41-50. The gastrectomy was accompanied by total vagotomy at the level of cardia. Sham operation was performed by opening the abdomen and moving the stomach.
In sham gastrectomised rats the ghrelin levels were 2.06±0.22 ng/ml, while they were less than the least detectable level of the assay, i e, 0.25 ng/ml after gastrectomy. From four weeks after gastrectomy the animals were administered either water or the ghrelin analogue MK-0677 by gavage once daily (4 mg/kg/day).
Food intake and body weight was measured daily and throughout the experiment. […] After two weeks of treatment, the animals were decapitated and blood and tissues collected and rapidly frozen. Gonadal, mesenteric and retroperitoneal far pads were dissected and weighed, and the sum of the weight was then calculated. Ghrelin was measured in serum using a kit purchased from Phoenix Pharmaceuticals as described (Dornonville de la Cour, supra).

[1] = 4 mg/kg/day by gavage once daily, after two weeks of treatment, vs water

Compound | desire for food (food intake measured daily) (treated once daily by gavage) | body weight (4 mg/kg/day by gavage once daily from four weeks after gastrectomy, two weeks of treatment, vs water) | hypothalamic levels of neuropeptide Y (NPY) mRNA [1] | sum of dissected fat pad weights (gonadal, mesenteric and retroperitoneal) [1]
ghrelin: acylated peptide of 28 amino acids with an octanoyl ester attached to a serine residue (GSS(Octanoyl)FLSPEHQRVQQRKESKKPPAKLQPR; listed as Homo sapiens) | increased | – | – | –
CC(C)(N)C(=O)N[C@H](COCc1ccccc1)C(=O)N1CCC2(CC1)CN(S(C)(=O)=O)c1ccccc12 [MK677] | – | increased | increased | enhanced
